We go through eight compounds from PMC11942279, “Multiple Inhibitory Mechanisms of DS16570511 Targeting Mitochondrial Calcium Uptake: Insights from Biochemical Analysis of Rat Liver Mitochondria” (International Journal of Molecular Sciences, 2025).

Data set [1] addresses T1, respiratory chain complex II (Rattus norvegicus, UniProt P21913+Q641Z9+Q6PCT8+Q920L2).
T1 construct: from tissue; host or cells: rat liver mitochondria (male Wistar rats)
Description: Mitochondrial oxygen consumption with succinate as respiratory substrate. Format: biochemical. How it is done: Figure 5 Effect of DS16570511 on oxygen consumption in the presence of succinate. (a) Mitochondria (Mt), 10 mM succinate, and 0.1 µM SF6847 were added to Pi medium containing the indicated concentrations of DS16570511 or antimycin at the time points marked by arrows. Changes in dissolved oxygen concentration in the reaction medium were measured, and representative traces are shown. “natomsO” denotes the nanomoles of oxygen atoms in the reaction medium. (b) The degree of inhibition was calculated from the rate of oxygen consumption over a 3 min period, measured 30 s after SF6847 addition. […] Data are presented as the mean ± standard deviation of independent experiments (n = 3).
(§1) Livers were harvested from 6- to 18-week-old male Wistar rats (Japan SLC, Shizuoka, Japan), and mitochondria were isolated as previously described. All animal experiments complied with the University of Tokushima Guidelines for the Care and Use of Laboratory Animals (approval number: T28-29). Mitochondrial protein concentrations were measured using the Biuret method with bovine serum albumin as the standard in the presence of 1% SDS.
When electrons were supplied via respiratory chain complex I, 5 mM glutamate and 5 mM malate were used as respiratory substrates. For electrons supplied via respiratory chain complex II, 0.68 µg/mL rotenone was added beforehand to inhibit electron transfer from endogenous respiratory chain complex I, and 10 mM succinate was used as the respiratory substrate.

In the next data set the test system is mice. Also noted: method as in PMID 32126877, PMID 38779706. The note with it: cited from earlier work.
For a further data set, the system named is Ca2+ uptake. The note with it: read-out: IC50 for inhibition of Ca2+ uptake; cited from earlier work.
The subject of the next data set is rat liver mitochondria. Description: Comparison with uncouplers on mitochondrial oxygen consumption. The note with it: 10 mM succinate, DS16570511 50 or 200 µM. In kind it is biochemical. How it is done:
Figure 4 Comparison of the effects of DS16570511 and uncouplers on mitochondrial oxygen consumption. Mitochondria (Mt), 10 mM succinate (Succ), and each compound (50 or 200 µM DS16570511 [DS], SF6847 [SF], or alamethicin [Ala]) were added to Pi medium at the time points indicated by arrows. Changes in the concentration of dissolved oxygen in the reaction medium were measured using an oxygen electrode. Representative traces are shown. “natomsO” denotes the nanomoles of oxygen atoms in the reaction medium.
The rate of mitochondrial oxygen consumption was measured using a Clark-type oxygen electrode (YSI5331, Yellow Springs Instrument Co., Ltd., Yellow Springs, OH, USA) at 25 °C in 2.2 mL of Pi medium preincubated with 2.5 µM CsA. When electrons were supplied via respiratory chain complex I, 5 mM glutamate and 5 mM malate were used as respiratory substrates. For electrons supplied via respiratory chain complex II, 0.68 µg/mL rotenone was added beforehand to inhibit electron transfer from endogenous respiratory chain complex I, and 10 mM succinate was used as the respiratory substrate. The degree of inhibition and IC50 values of DS16570511 were calculated based on the oxygen consumption rate over a 3 min period, starting 30 s after the addition of SF6847.

Another data set deals with FoF1-ATPase/ANT. Description: Mitochondrial FoF1-ATPase activity (pH electrode). Format: biochemical. The note with it: rat liver mitochondria, 1 mM ATP, antimycin, pH change over 3 min; read-out: IC50 for inhibition of FoF1-ATPase/ANT activity (pH decrease). The procedure:
Figure 7 Effect of DS16570511 on mitochondrial FoF1-ATPase activity. (a) Schematic representation of mitochondrial FoF1-ATPase activity: ATP enters the matrix via ANT and is hydrolyzed to ADP by FoF1-ATPase, driving proton extrusion from the matrix and decreasing the reaction medium pH. […] (b) Mitochondria were added to the incubation medium containing the indicated concentrations of DS16570511 or oligomycin, and pH changes in the medium were measured using a pH electrode. Representative traces are shown. (c) Inhibition was calculated from the pH change over a 3 min period, starting 30 s after adding mitochondria. Results are expressed as 0% inhibition in the absence of DS16570511 and 100% inhibition with oligomycin. Data are presented as the mean ± standard deviation of independent experiments (n = 3).
as §1
Mitochondrial FoF1-ATPase activity was measured using a modified version of the classical pH electrode-based method. […]

Data set [2] concerns mitochondrial Ca2+ uptake in rat liver mitochondria. Description: Mitochondrial Ca2+ uptake assay (succinate-energized, Fluo-5). Format: biochemical. The note with it: 10 mM succinate, Ca2+ uptake rate during first 30 s after adding mitochondria, read-out: IC50 for inhibition of mitochondrial Ca2+ uptake. The procedure: Figure 2 Effect of DS16570511 on mitochondrial Ca^2+ uptake activity in rat liver mitochondria. (a) Mitochondrial Ca^2+ uptake activity was measured in isolated rat liver mitochondria. Mitochondria were added to Pi medium containing the indicated concentrations of DS16570511 or ruthenium 360, and changes in extramitochondrial Ca^2+ concentration over time were analyzed based on Fluo-5 fluorescence intensity. Representative traces are shown. (b) The degree of inhibition was calculated from the Ca^2+ uptake rate during the first 30 s after adding mitochondria. Data are expressed as 0% inhibition in the absence of DS16570511 (none) and 100% inhibition in the presence of ruthenium 360. […]
(§2) Livers were harvested from 6- to 18-week-old male Wistar rats (Japan SLC, Shizuoka, Japan), and mitochondria were isolated as previously described. […] Mitochondrial protein concentrations were measured using the Biuret method with bovine serum albumin as the standard in the presence of 1% SDS.
Fluo-5 (1 µM) was used as a Ca^2+-sensitive fluorescence indicator in 1 mL of Pi medium (250 mM sucrose, 10 mM Tris-MOPS, 10 µM EGTA-Tris, 0.5 mg/mL bovine serum albumin, and 10 mM KPi, pH 7.4). Fluorescence intensity was measured using an F-2700 spectrofluorometer (HITACHI, Tokyo, Japan) with excitation and emission wavelengths of 494 and 516, respectively. […]

Data set [3] relates to membrane potential in rat liver mitochondria. Description: Measurement of mitochondrial membrane potential formation (DiSC3(5)). In kind it is biochemical. The note with it: 10 mM succinate, first 5 s after succinate addition, read-out: IC50 for inhibition of membrane potential formation. The procedure: Figure 3 Effect of DS16570511 on membrane potential in rat liver mitochondria. (a) Rat liver mitochondria were incubated in Pi medium containing the indicated concentrations of DS16570511 or antimycin. At the time points indicated by arrows, 10 mM succinate was added as a respiratory substrate, and membrane potential was measured using 3 µM DiSC3(5) as a probe. Representative traces are shown. (b) The degree of inhibition was calculated from the rate of membrane potential formation during the first 5 s after succinate addition, with 0% inhibition in the absence of DS16570511 (none) and 100% inhibition in the presence of SF6847. […]
as §2
DiSC3(5) (3 µM) was used as a fluorescent probe to measure mitochondrial membrane potential in 2.2 mL of Pi medium. Fluorescence intensity was measured using an F-2700 spectrofluorometer (HITACHI, Tokyo, Japan) with excitation and emission wavelengths of 643 and 666 nm, respectively. Fluorescence intensity was recorded after adding 10 mM succinate to Pi medium containing 2.5 µM CsA, 0.68 µg/mL rotenone, 0.42 mg protein/mL mitochondria, and DS16570511. […]

Data set [4] deals with respiratory chain complexes I–III–IV. Description: Mitochondrial oxygen consumption with glutamate and malate as respiratory substrates. Format: biochemical. The note with it: rat liver mitochondria, 5 mM glutamate, 5 mM malate, 0.1 µM SF6847; read-out: IC50 for inhibition of oxygen consumption (glutamate and malate; respiratory chain complexes I–III–IV). The procedure: Figure 6 Effect of DS16570511 on oxygen consumption in the presence of glutamate and malate. (a) Mitochondria (Mt), 5 mM glutamate, 5 mM malate, and 0.1 µM SF6847 were added to Pi medium containing the indicated concentrations of DS16570511 or antimycin at the time points marked by arrows. Changes in dissolved oxygen concentration in the reaction medium were measured, and representative traces are shown. “natomsO” denotes the nanomoles of oxygen atoms in the reaction medium. (b) The degree of inhibition was calculated from the rate of oxygen consumption over a 3 min period, measured 30 s after SF6847 addition. Results are expressed as 0% inhibition in the absence of DS16570511 (none) and 100% inhibition with antimycin. Data are presented as the mean ± standard deviation of independent experiments (n = 3).
as §2
The rate of mitochondrial oxygen consumption was measured using a Clark-type oxygen electrode (YSI5331, Yellow Springs Instrument Co., Ltd., Yellow Springs, OH, USA) at 25 °C in 2.2 mL of Pi medium preincubated with 2.5 µM CsA. […]

Setting [5] is: rat liver mitochondria, succinate.

T1 sequence (Q920L2 35-656): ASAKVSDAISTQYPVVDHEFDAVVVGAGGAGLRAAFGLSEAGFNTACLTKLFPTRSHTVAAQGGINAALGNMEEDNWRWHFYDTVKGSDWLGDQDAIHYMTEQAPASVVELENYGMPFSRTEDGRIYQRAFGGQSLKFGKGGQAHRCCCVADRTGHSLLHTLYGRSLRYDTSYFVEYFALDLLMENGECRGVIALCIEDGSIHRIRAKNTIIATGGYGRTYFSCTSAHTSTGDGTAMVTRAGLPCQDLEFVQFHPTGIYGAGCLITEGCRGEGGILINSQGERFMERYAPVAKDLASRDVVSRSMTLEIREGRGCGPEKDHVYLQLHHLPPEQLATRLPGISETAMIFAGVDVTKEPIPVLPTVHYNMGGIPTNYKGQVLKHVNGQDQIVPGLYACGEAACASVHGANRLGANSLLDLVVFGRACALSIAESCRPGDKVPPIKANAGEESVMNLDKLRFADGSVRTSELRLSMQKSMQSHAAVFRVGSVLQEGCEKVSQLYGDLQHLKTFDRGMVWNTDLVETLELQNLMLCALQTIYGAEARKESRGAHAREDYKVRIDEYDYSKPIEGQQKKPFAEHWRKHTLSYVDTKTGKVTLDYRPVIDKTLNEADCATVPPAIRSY
T1 sequence (P21913 31-282): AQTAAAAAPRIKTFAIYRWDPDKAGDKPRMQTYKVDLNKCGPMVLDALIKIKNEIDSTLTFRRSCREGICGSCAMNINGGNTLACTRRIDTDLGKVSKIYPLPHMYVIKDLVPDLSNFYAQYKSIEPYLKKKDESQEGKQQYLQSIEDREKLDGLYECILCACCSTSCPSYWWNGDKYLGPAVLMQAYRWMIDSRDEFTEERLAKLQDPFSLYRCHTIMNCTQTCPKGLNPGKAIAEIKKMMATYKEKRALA
T1 sequence (Q641Z9 30-169 limits assumed): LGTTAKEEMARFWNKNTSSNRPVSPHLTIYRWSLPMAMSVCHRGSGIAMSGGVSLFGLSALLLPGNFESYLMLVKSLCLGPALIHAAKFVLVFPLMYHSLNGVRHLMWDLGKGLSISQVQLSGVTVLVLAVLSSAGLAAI
T1 sequence (Q6PCT8 57-159): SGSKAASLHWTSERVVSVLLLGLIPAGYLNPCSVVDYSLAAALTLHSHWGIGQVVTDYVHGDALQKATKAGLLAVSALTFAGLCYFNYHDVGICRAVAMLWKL

`Cc1onc(-c2c(Cl)cccc2Cl)c1/C=N/c1cccc(C(=O)c2cn(CCCC(=O)O)c3ccccc23)c1` [Compound 3] came in with an IC50 in data set [1] of 52.7 µM.
For `N.N.N.N.N.N.N.N.[Cl][Ru+3].[N-]=[Ru][Cl]` [ruthenium 265], the “Adverse effect after intraperitoneal administration” value in the data set with mice is reported as “caused seizure-like movements”.
As for `CCOC(=O)CCCn1cc(C(=O)c2cccc(NCc3c(-c4c(Cl)cccc4Cl)noc3C)c2)c2ccccc21` [Compound 2], the “Inhibitory activity on oxygen consumption via respiratory chain complex II (in words)” value in data set [1] (setting [5]) was “completely lacked inhibitory activity”.
Turning to `N.N.N.N.N.N.N.N.O=CO.O=CO.[O-2].[Ru+3].[Ru+4]` [Ruthenium 360], in the data set on Ca2+ uptake, the IC50 was 0.000184 µM.
Take `CCOC(=O)CCCn1cc(C(=O)c2cccc(/N=C/c3c(-c4c(Cl)cccc4Cl)noc3C)c2)c2ccccc21` [Compound 4]: in data set [1] (setting [5]), the “Inhibitory activity on oxygen consumption via respiratory chain complex II (in words)” value was “completely lacked inhibitory activity”.
For the compound alamethicin, the “Effect on mitochondrial oxygen consumption (uncoupling test, in words)” value in the data set on rat liver mitochondria was “markedly increased oxygen consumption”.
The same measure, in the same setting: under `CC(C)(C)c1cc(C=C(C#N)C#N)cc(C(C)(C)C)c1O` [SF6847] stands “markedly increased oxygen consumption”.
`Cc1onc(-c2c(Cl)cccc2Cl)c1CNc1cccc(C(=O)c2cn(CCCC(=O)O)c3ccccc23)c1` [DS16570511]: the IC50 on FoF1-ATPase/ANT came to 97.2 µM; in data set [2], 9.2 µM; in data set [3], 10.8 µM; in data set [4] it was 40.9 µM; in data set [1], 9.5 µM. In data set [1] (200 µM, rat liver mitochondria, succinate, SF6847), the “Inhibition of oxygen consumption at a single concentration (in words)” value is given as “inhibited oxygen consumption to the same extent as antimycin”. Besides, the “Effect on mitochondrial oxygen consumption (uncoupling test, in words)” value in the data set on rat liver mitochondria is “reduced the rate of oxygen consumption”.
